In patent US8410165B2, “Aldehyde conjugated flavonoid preparations” (Agency for Science, Technology and Research, priority 2005, dated 2013):

What was measured:
Type in all cases: biochemical
[1] = Diphenyl-picryl-hydrazyl (DPPH) scavenging activity; conditions: concentration needed to scavenge DPPH by 50%; EGCG moiety concentration for EGCG-containing samples, n = 3
Protocol: Diphenyl-picryl-hydrazyl scavenging activity: Different amounts of a sample were mixed with the chemically stable free radical 1,1-diphenyl-2-picryl-hydrazyl (DPPH) solution and absorbance at 519 nm was continuously recorded for 30 min at 25° C. using a UV-visible spectrophotometer (JASCO V-510 UV/VIS/NIR spectrometer, Japan). All analyses were run in triplicate and the results were averaged.
Diphenyl-picryl-hydrazyl scavenging activity and Superoxide anion scavenging activity: The 1,1-diphenyl-2-picryl-hydrazyl radical (DPPH) assay, which measures hydrogen atom donating activity, provides an evaluation of antioxidant activity due to free radical scavenging. DPPH, a purple-coloured stable free radical, is reduced into the yellow-coloured diphenylpicry hydrazine, as the radical is scavenged by antioxidants through donation of hydrogen. […] The DPPH scavenging activity of samples was expressed by IC50 (the concentration needed to scavenge DPPH by 50%), as shown in Table 4. […] These activities were also much higher than those of commercial antioxidants, vitamin C and dibutylhydroxytoluen (BHT).

[2] = Superoxide anion scavenging activity (xanthine/XO, NBT reduction method); conditions: concentration needed to scavenge superoxide anion by 50%; EGCG moiety concentration for EGCG-containing samples, n = 3; read-out: Superoxide radical scavenging activity IC50
Protocol: Superoxide anion scavenging activity: Superoxide anion was generated using xanthine and xanthine oxidase (XO), and measured by the nitroblue tetrazolium (NBT) reduction method. A test sample was mixed in a buffer solution (pH 7.0) containing xanthine and NBT at 25° C. Measurement began with the addition of XO. […] All analyses were run in triplicate and the results were averaged. Superoxide scavenging activity was calculated according to the following formula: […] A mixture of xanthine and XO generates superoxide anion, which reduces nitroblue tetrazolium (NBT) to give the blue chromogen formazan and increases UV absorbance at 560 nm. Compounds capable of scavenging superoxide anion, such as superoxide dismutase (SOD), inhibit NBT reduction. […] Since compounds capable of scavenging superoxide anion can also affect NBT reduction, samples were investigated for their effects on these processes. […] Evaluation of scavenging activity against DPPH and superoxide anion provided direct evidence of the free radical scavenging potential of those compounds.

Xanthine oxidase (XO) = target: T1, Xanthine oxidase (XO) (Bos taurus, UniProt P80457); experiment: Xanthine oxidase inhibitory activity (uric acid formation at 295 nm); conditions: for XO inhibition activity: 10 μM of samples
T1 construct: purchased Sigma-Aldrich
Protocol: Xanthine oxidase inhibitory activity: The activity of XO was measured spectrophotometrically by monitoring the formation of uric acid at 295 nm for 30 min using a UV-visible spectrometer. The assay was carried out under the same conditions as the superoxide anion assay, and the percentage activity was calculated.

Urokinase (uPA) = Urokinase (uPA) (Homo sapiens, UniProt P00749); experiment: uPA inhibitory activity (SPECTROZYME UK); conditions: over a range of tested concentrations, EGCG-unit concentration (FIG. 8)
Protocol: uPA inhibitory activity: Various amounts of a sample were mixed with uPA in a buffer solution, and incubated for 15 min at 37° C. The mixture solution was added with SPECTROZYME™ and absorbance at 405 nm was recorded for 10 min using a microplate reader.

[3] = ABTS radical scavenging activity; conditions: dissociation (FIG. 27)
Protocol: Radical scavenging activity: ABTS^.+ was prepared by mixing a 7 mM ABTS stock solution with 2.45 mM potassium persulfate ((1/1, v/v). The decolorization reaction was initiated by adding ABTS^.+ to samples in a phosphate buffer and immediately measured at 734 nm using a UV-Vis spectrophotometer (Hitachi, Japan).

Lysozyme from egg white = target: T2, Lysozyme from egg white (Gallus gallus, UniProt P00698); experiment: Lysozyme activity upon complexation with OEGCG and recovery with Triton X-100
T2 construct: Lysozyme from egg white, Sigma Chemical; purchased Sigma Chemical; host or cells: egg white
Protocol: Lysozyme from egg white, Sigma Chemical. Activity of lysozyme was determined spectrophotometically at 450 nm by the decrease in turbidity over time due to the cleavage of glucosidic linkages of Micrococcus lysodeikticus. […] To start the reaction, 0.25 mg/mL of Micrococcus lysodeikticus was added to the solution.
(§1) Activity was measured according to the specified method for each protein.
(§2) Activity for all proteins is calculated with the following equation:
(§3) [formula] where ΔAbssample is the change in absorbance over time with the test compound and ΔAbscontrol is the change in absorbance over time without the test compound.

[4] = target: T3, α-Amylase from Apergillus oryzae (Aspergillus oryzae, UniProt P0C1B3); experiment: α-Amylase activity upon complexation with OEGCG and recovery with Triton X-100
T3 construct: α-Amylase from Apergillus oryzae, Fluka; purchased Fluka; host or cells: Aspergillus oryzae
Protocol: α-Amylase from Apergillus oryzae, Fluka. Amylase activity was assayed with an activity kit from Molecular Probes (E-11954) using a fluorescence spectrophotometer with excitation wavelength at 505 nm and emission wavelength at 512 nm. […] Fluorescence was monitored over a period of 3 minutes.
as §1, §2, §3

[5] = target: T4, Xanthine Oxidase from buttermilk (Bos taurus, UniProt P80457); experiment: Xanthine oxidase activity upon complexation with OEGCG and recovery with Triton X-100; conditions: highest OEGCG concentration
T4 construct: Xanthine Oxidase from buttermilk, Wako Chemical; purchased Wako Chemical; host or cells: buttermilk
Protocol: XO activity was measured by determining uric acid production in a UV-vis spectrophotometer at 295 nm. The increase in absorbance due to the conversion of xanthine to uric acid was followed for 3 minutes. […] Activity was measured according to the specified method for each protein. Activity for all proteins is calculated with the following equation: [formula] where ΔAbssample is the change in absorbance over time with the test compound and ΔAbscontrol is the change in absorbance over time without the test compound.

[6] = target: T5, Catalase from bovine liver (Bos taurus, UniProt P00432); experiment: Catalase activity upon complexation with OEGCG and recovery with Triton X-100
T5 construct: Catalase from bovine liver, Sigma Chemical; purchased Sigma Chemical; host or cells: bovine liver
T5 sequence (P00432 2-527 limits assumed): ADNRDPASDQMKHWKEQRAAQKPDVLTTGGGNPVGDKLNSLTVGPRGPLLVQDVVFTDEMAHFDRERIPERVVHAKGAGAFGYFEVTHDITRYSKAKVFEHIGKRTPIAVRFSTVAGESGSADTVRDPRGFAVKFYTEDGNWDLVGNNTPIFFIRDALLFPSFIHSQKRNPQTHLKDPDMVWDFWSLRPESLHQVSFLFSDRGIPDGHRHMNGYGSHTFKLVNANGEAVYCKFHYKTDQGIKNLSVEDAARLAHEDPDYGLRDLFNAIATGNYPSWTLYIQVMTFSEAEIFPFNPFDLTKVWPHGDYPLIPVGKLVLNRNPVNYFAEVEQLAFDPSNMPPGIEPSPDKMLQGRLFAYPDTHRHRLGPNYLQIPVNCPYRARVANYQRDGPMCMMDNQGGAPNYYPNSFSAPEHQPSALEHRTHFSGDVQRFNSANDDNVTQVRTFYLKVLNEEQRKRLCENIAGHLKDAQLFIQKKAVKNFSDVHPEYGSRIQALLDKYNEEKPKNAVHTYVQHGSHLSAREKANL
Protocol: Catalase from bovine liver, Sigma Chemical. Catalase activity was measured by the disappearance of H2O2, followed at 240 nm in a UV-Vis spectrophotometer over a period of 200s. […] The reaction was started by adding 0.507 M H2O2 and mixing for 25 s.
as §1, §2, §3

[7] = addition of TX-100 after complexation with OEGCG

T1 sequence (P80457 2-1332 limits assumed): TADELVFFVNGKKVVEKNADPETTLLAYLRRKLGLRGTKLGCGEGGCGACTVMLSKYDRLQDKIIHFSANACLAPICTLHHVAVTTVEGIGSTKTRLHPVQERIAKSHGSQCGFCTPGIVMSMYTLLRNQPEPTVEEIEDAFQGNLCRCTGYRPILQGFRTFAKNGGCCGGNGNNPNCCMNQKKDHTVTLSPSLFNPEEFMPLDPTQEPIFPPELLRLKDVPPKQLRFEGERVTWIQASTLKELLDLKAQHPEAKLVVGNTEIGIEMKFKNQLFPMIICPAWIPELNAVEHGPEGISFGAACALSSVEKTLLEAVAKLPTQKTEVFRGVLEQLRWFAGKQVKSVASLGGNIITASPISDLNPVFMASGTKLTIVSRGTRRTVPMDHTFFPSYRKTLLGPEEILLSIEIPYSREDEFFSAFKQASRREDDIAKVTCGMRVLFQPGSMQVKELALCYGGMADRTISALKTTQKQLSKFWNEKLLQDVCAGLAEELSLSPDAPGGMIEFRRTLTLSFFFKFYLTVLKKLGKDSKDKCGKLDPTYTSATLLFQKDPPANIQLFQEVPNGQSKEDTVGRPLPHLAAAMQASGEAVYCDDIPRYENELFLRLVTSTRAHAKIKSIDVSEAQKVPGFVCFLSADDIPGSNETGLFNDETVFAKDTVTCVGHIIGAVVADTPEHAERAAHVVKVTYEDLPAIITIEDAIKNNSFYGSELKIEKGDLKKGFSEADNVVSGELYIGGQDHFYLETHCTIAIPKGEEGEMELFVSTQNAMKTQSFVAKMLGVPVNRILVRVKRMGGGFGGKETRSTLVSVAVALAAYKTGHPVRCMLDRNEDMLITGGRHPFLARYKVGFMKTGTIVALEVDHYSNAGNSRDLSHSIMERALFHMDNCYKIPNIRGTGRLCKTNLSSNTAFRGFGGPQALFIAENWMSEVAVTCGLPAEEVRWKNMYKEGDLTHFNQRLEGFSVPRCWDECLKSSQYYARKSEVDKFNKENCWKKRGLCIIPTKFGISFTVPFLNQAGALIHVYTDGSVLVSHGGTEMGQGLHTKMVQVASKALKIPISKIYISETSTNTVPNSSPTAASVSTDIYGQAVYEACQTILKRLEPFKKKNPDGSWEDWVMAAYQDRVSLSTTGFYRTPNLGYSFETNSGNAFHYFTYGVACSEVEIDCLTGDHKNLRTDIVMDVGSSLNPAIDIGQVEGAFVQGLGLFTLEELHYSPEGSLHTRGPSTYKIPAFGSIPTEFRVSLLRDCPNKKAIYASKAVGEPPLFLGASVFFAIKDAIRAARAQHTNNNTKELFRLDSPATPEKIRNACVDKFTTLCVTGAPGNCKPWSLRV
T2 sequence (P00698 19-147): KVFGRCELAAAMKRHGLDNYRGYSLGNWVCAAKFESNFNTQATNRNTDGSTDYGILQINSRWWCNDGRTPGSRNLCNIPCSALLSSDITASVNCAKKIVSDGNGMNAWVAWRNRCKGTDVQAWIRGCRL
T4 sequence (P80457 whole entry): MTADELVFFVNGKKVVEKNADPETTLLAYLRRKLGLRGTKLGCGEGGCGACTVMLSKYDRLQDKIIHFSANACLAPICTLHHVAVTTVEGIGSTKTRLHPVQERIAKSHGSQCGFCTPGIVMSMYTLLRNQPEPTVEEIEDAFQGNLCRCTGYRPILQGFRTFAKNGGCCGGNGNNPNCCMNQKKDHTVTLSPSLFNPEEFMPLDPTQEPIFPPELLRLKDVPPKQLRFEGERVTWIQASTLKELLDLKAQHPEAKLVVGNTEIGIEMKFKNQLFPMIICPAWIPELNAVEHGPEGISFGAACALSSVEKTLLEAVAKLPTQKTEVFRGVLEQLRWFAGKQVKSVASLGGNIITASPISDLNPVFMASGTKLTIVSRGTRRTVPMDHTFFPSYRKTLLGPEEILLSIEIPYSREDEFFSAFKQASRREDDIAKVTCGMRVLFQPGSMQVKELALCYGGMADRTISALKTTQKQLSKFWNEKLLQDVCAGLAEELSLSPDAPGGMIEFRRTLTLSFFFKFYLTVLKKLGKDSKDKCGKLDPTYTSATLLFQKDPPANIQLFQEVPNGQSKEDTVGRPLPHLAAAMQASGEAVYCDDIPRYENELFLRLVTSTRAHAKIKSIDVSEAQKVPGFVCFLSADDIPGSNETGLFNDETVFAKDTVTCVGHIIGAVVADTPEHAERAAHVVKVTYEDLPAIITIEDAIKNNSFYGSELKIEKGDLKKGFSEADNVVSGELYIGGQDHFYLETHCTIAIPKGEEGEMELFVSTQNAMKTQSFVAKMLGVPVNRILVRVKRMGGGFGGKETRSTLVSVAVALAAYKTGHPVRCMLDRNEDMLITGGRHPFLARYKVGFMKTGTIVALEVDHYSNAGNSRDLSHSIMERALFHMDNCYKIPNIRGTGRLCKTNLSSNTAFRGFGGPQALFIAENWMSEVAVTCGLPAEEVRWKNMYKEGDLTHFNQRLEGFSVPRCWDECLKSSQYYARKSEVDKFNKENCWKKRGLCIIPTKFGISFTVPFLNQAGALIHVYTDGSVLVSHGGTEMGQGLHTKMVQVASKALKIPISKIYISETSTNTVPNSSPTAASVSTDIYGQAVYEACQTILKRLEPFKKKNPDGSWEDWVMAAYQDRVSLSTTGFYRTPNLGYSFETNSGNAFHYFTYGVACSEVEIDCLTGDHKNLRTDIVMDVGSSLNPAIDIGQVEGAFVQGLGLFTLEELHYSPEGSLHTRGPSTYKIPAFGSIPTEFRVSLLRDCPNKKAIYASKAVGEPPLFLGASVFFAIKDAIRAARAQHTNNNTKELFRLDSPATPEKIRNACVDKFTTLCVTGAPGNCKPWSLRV

Row | Compound | IC50 [1] | IC50 [2] | uPA inhibition activity (Urokinase (uPA)) | XO inhibition activity (Xanthine oxidase (XO)) | further results
1 | Cc1cc(C(C)(C)C)c(O)c(C(C)(C)C)c1 [BHT, dibutylhydroxytoluen, reference compound] | > 250 µM | > 250 µM | – | – | –
2 | O=C1O[C@H]([C@@H](O)CO)C(O)=C1O [Vitamin C, reference compound] | 44.7 ± 0.4 µM | 30.3 ± 0.3 µM | – | – | –
3 | Oc1ncnc2[nH]ncc12 [allopurinol, reference compound] | – | – | – | – | inhibition at 10 µM (Xanthine oxidase (XO); read-out: XO inhibition activity): 22.6%
4 | (−)-Epigallocatechin gallate [EGCG, reference compound] | 7.3 ± 0.6 µM | 2.9 ± 0.3 µM | very low uPA inhibition activity | 1.2% | XO inhibition (Xanthine oxidase (XO); over the range of concentrations tested): less than 5%
5 | PEG-epigallocatechin gallate conjugate [PEG-EGCG] | 6.2 ± 0.3 µM | 0.9 ± 0.1 µM | higher inhibition activities | 30.7% | –
6 | PEG-oligomeric epigallocatechin gallate [PEG-OEGCG] | 3.8 ± 0.8 µM | 0.4 ± 0.1 µM | higher inhibition activities | 100% | –
7 | oligomeric epigallocatechin gallate [OEGCG] | 4.9 ± 0.5 µM | 1.1 ± 0.2 µM | higher inhibition activities | 89.3% | ABTS radical scavenging activity upon complexation with proteins and dissociation [3]: suppressed by complexation with proteins was restored upon dissociation; inhibition of lysozyme (Lysozyme from egg white; above an OEGCG ratio of 2): All activity was suppressed; lysozyme activity restored, % of the initial protein activity (Lysozyme from egg white; [7]): approximately 100%; maximum inhibition of α-amylase [4]: about 94%; initial α-amylase activity inhibition ([4]; OEGCG below a ratio of one): 70%; α-amylase activity restored, % of the initial protein activity [4, 7]: approximately 100%; decrease in α-amylase activity ([4]; five fold increase in OEGCG concentration from a ratio of 1 to 5): 20%; suppression of total XO activity [5]: 75%; further decrease of catalase activity ([6]; five fold increase in OEGCG concentration beyond OEGCG to protein ratio of 1): about 6%; inhibition of catalase ([6]; highest OEGCG to protein ratio): 30%
